Data published in article PMC5971063 (ACS infectious diseases, 2017).
Converted amounts (≈) assume the structure as drawn.

Legend:
S. flexneri 2457 NR-517 [1] = test: Single-point antibacterial screen; assay type: cell-based, Shigella flexneri
Hemolysis assay = assay type: cell-based, rabbit; details: rabbit, rabbit erythrocytes (2% w/w)
[2] = tested on: E. coli S30 Extract System (prokaryotic translation); test: Cell-free in vitro translation assay, prokaryotic system; assay type: biochemical; details: 1.25 µM–2.4 nM
E. coli ATCC 25922 [3] = test: Single-point antibacterial screen
E. faecalis ATCC 29212 = test: Single-point antibacterial screen
K. pneumoniae NR-151410 = test: Single-point antibacterial screen
P. mirabilis HM-752 [4] = test: Single-point antibacterial screen
MRSA ATCC 33591 [5] = test: Single-point antibacterial screen
MRSA A960649 NR-45914 [6] = test: Single-point antibacterial screen
A. baumannii ATCC 19606 = test: Single-point antibacterial screen
C. freundii 4747 CFAA [7] = test: Single-point antibacterial screen
E. cloacae ATCC 13047 [8] = test: Single-point antibacterial screen
[9] = tested on: L. monocytogenes ATCC 19115; test: Single-point antibacterial screen
P. aeruginosa ATCC 27853 = test: Single-point antibacterial screen
[10] = tested on: S. epidermidis ATCC 12384; test: Single-point antibacterial screen
S. marcescens ATCC 13880 [11] = test: Single-point antibacterial screen
S. flexneri 2457 NR-517 [12] = test: MIC by double-dilution method; assay type: cell-based, Shigella flexneri
rabbit erythrocytes = test: Hemolysis assay; assay type: cell-based; details: 100 µM
[13] = tested on: rabbit reticulocyte lysate (eukaryotic translation); test: Cell-free in vitro translation assay, eukaryotic system; assay type: biochemical; details: 4.2 µM to 5 nM
E. coli ATCC 25922 [14] = test: MIC by double-dilution method
P. mirabilis HM-752 [15] = test: MIC by double-dilution method
MRSA ATCC 33591 [16] = test: MIC by double-dilution method; details: MRSA 33591
MRSA A960649 NR-45914 [17] = test: MIC by double-dilution method
C. freundii 4747 CFAA [18] = test: MIC by double-dilution method
E. cloacae ATCC 13047 [19] = test: MIC by double-dilution method
[20] = tested on: L. monocytogenes ATCC 19115; test: MIC by double-dilution method
[21] = tested on: S. epidermidis ATCC 12384; test: MIC by double-dilution method
S. marcescens ATCC 13880 [22] = test: MIC by double-dilution method
[23] = tested on: E. coli A-site (RNA, rRNA) GGCGUCACACCUUCGGGUGAAGUCGCC; test: fluorescent displacement assay; details: 50 mM Na+; F–NEO displaced (0.1 µM 1:1 complex), 10 mM HEPES, 0.4 mM EDTA, pH 7
[24] = tested on: human cytosolic A-site (RNA, rRNA) GGCGUCGCUCCUUCGGGAAAAGUCGCC; test: fluorescent displacement assay; details: 50 mM Na+; F–NEO displaced (0.1 µM 1:1 complex), 10 mM HEPES, 0.4 mM EDTA, pH 7
[25] = tested on: mitochondrial A-site (RNA, rRNA) GGCGUCACCCCUUCGGGACAAGUCGCC; test: fluorescent displacement assay; details: 50 mM Na+; F–NEO displaced (0.1 µM 1:1 complex), 10 mM HEPES, 0.4 mM EDTA, pH 7
E. coli A-site = details: concentration at which F–NEO emission is 50% of maximum
human cytosolic A-site = details: F–NEO displacement
mitochondrial A-site = details: F–NEO displacement

For `NCc1ccc2c(c1)C(=O)c1ccccc1C2=O` [AMA], the inhibition at 6.3 µM (S. flexneri 2457 NR-517 [1]; Shigella flexneri, 2457NR517, read-out: Inhibition of bacterial growth) was 9%, the hemolysis at 1 h, 100 µM (Hemolysis assay) was 10 ± 4.6% and the “Inhibition of prokaryotic translation (in words)” value [2] was “did not inhibit in vitro translation”. The inhibition at 6.3 µM (E. coli ATCC 25922 [3]; Escherichia coli, ATCC25922, read-out: Inhibition of bacterial growth) was 2%, the inhibition at 6.3 µM (E. faecalis ATCC 29212; Enterococcus faecalis, ATCC29212, read-out: Inhibition of bacterial growth) was 27% and the inhibition at 6.3 µM (K. pneumoniae NR-151410; Klebsiella pneumoniae, NR151410, read-out: Inhibition of bacterial growth) was 0%. It also gave an inhibition at 6.3 µM (P. mirabilis HM-752 [4]; Proteus mirabilis, HM752, read-out: Inhibition of bacterial growth) of 19%, an inhibition at 6.3 µM (MRSA ATCC 33591 [5]; Staphylococcus aureus, ATCC33591|MRSA, read-out: Inhibition of bacterial growth) of 0% and an inhibition at 6.3 µM (MRSA A960649 NR-45914 [6]; Staphylococcus aureus, MRSA, read-out: Inhibition of bacterial growth) of 0%. The inhibition at 6.3 µM (A. baumannii ATCC 19606; Acinetobacter baumannii, ATCC19606, read-out: Inhibition of bacterial growth) was 0%, the inhibition at 6.3 µM (C. freundii 4747 CFAA [7]; Citrobacter freundii, 4747CFAA, read-out: Inhibition of bacterial growth) was 4% and the inhibition at 6.3 µM (E. cloacae ATCC 13047 [8]; Enterobacter cloacae, ATCC13047, read-out: Inhibition of bacterial growth) was 0%. For the same molecule, the inhibition at 6.3 µM ([9]; Listeria monocytogenes, ATCC19115, 48 h, read-out: Inhibition of bacterial growth) was 37%, the inhibition at 6.3 µM (P. aeruginosa ATCC 27853; Pseudomonas aeruginosa, ATCC27853, read-out: Inhibition of bacterial growth) was 5% and the inhibition at 6.3 µM ([10]; Staphylococcus epidermidis, ATCC12384, read-out: Inhibition of bacterial growth) was 0%. It also gave an inhibition at 6.3 µM (S. marcescens ATCC 13880 [11]; Serratia marcescens, ATCC13880, read-out: Inhibition of bacterial growth) of 0%.
For `NC[C@@H]1O[C@H](O[C@H]2[C@@H](O)[C@H](O[C@@H]3[C@@H](O)[C@H](N)C[C@H](N)[C@H]3O[C@H]3O[C@H](CN)[C@@H](O)[C@H](O)[C@H]3N)O[C@@H]2CO)[C@H](N)[C@@H](O)[C@@H]1O` [NEO, neomycin], the “Inhibition of bacterial growth” value (S. flexneri 2457 NR-517 [1]; S. flexneri, 6.3 µM) was 100%, the MIC (S. flexneri 2457 NR-517 [12]) was 6.3 µM (≈ 3.87 µg/mL) and the “% hemolysis” value (rabbit erythrocytes) was 7.0 ± 0.4%. For the same molecule, the “Inhibition of eukaryotic translation” value [13] was “inhibition of translation is not observed”, the MIC (E. coli ATCC 25922 [14]) was 1.56 µM (≈ 0.959 µg/mL) and the MIC (P. mirabilis HM-752 [15]) was 6.3 µM (≈ 3.87 µg/mL). The MIC (MRSA ATCC 33591 [16]) was 400 µM (≈ 246 µg/mL), the MIC (MRSA A960649 NR-45914 [17]) was 400 µM (≈ 246 µg/mL) and the MIC (C. freundii 4747 CFAA [18]) was 0.78 µM (≈ 0.479 µg/mL). It also gave an MIC (E. cloacae ATCC 13047 [19]) of 3.25 µM (≈ 2 µg/mL), an MIC [20] of 1.6 µM (≈ 0.983 µg/mL) and an MIC [21] of 1.6 µM (≈ 0.983 µg/mL). The MIC (S. marcescens ATCC 13880 [22]) was 3.2 µM (≈ 1.97 µg/mL), the “Inhibition of bacterial growth” value (E. coli ATCC 25922 [3]; E. coli, 6.3 µM) was 100% and the “Inhibition of bacterial growth” value (E. faecalis ATCC 29212; E. faecalis, 6.3 µM) was 39%. The “Inhibition of bacterial growth” value (K. pneumoniae NR-151410; K. pneumoniae, 6.3 µM) was 0%, the “Inhibition of bacterial growth” value (P. mirabilis HM-752 [4]; P. mirabilis, 6.3 µM) was 96% and the “Inhibition of bacterial growth” value (MRSA ATCC 33591 [5]; MRSA 33591, 6.3 µM) was 0%. For the same molecule, the “Inhibition of bacterial growth” value (MRSA A960649 NR-45914 [6]; MRSA A960649, 6.3 µM) was 0%, the “Inhibition of bacterial growth” value (A. baumannii ATCC 19606; A. baumannii, 6.3 µM) was 91% and the “Inhibition of bacterial growth” value (C. freundii 4747 CFAA [7]; C. freundii, 6.3 µM) was 97%. The “Inhibition of bacterial growth” value (E. cloacae ATCC 13047 [8]; E. cloacae, 6.3 µM) was 100%, the “Inhibition of bacterial growth” value ([9]; L. monocytogenes, 6.3 µM, 48 h incubation) was 100% and the “Inhibition of bacterial growth” value (P. aeruginosa ATCC 27853; P. aeruginosa, 6.3 µM) was 11%. The “Inhibition of bacterial growth” value ([10]; S. epidermidis, 6.3 µM) was 95%, the “Inhibition of bacterial growth” value (S. marcescens ATCC 13880 [11]; S. marcescens, 6.3 µM) was 100% and the IC50 [23] was 87.3 ± 5.9 nM. It also gave an IC50 [24] of 76.5 ± 13.2 nM, an IC50 [25] of 87.1 ± 8.3 nM and an IC50 (E. coli A-site) of 87.3 ± 5.9 nM. The IC50 (human cytosolic A-site) was 76.5 ± 13.2 nM and the IC50 (mitochondrial A-site) was 87.1 ± 8.3 nM.
With Triton X-100 the “% hemolysis” value (rabbit erythrocytes) was 100.0%.
